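These data come from cells grown in 96-well plates and exposed to compound for 48 hours at five concentrations. GI50: concentration for 50% inhibition of growth.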 The source made the active and inactive calls. Cut-off read from the data, not from the text of the source: active = GI50 up to about 1.1 µM and inactive = higher.
Legend:
Experiment in all cases: NCI tumour cell line growth inhibition, 48 h
[1] = system: 786-0
[2] = system: A498
[3] = system: A549
[4] = system: ACHN
[5] = system: CAKI-1
[6] = system: CCRF-CEM
[7] = system: COLO 205
[8] = system: DU-145
[9] = system: EKVX
[10] = system: HCC 2998
[11] = system: HCT-116
[12] = system: HCT-15
[13] = system: HL-60
[14] = system: HOP-62
[15] = system: HOP-92
[16] = system: HT-29
[17] = system: Hs-578T
[18] = system: IGROV-1
[19] = system: K562
[20] = system: KM12
[21] = system: LOX IMVI
[22] = system: M14
[23] = system: MCF7
[24] = system: MDA-MB-231
[25] = system: MDA-MB-435
[26] = system: MDA-N
[27] = system: MOLT-4
[28] = system: Malme-3M
[29] = system: NCI-H226
[30] = system: NCI-H23
[31] = system: NCI-H460
[32] = system: NCI-H522
[33] = system: NCI/ADR-RES
[34] = system: OVCAR-3
[35] = system: OVCAR-4
[36] = system: OVCAR-5
[37] = system: OVCAR-8
[38] = system: PC-3
[39] = system: RPMI-8226
[40] = system: RXF 393
[41] = system: SF-268
[42] = system: SF-295
[43] = system: SF-539
[44] = system: SK-MEL-28
[45] = system: SK-MEL-2
[46] = system: SK-MEL-5
[47] = system: SK-OV-3
[48] = system: SN12C
[49] = system: SNB-19
[50] = system: SR
[51] = system: SW-620
[52] = system: T47D
[53] = system: TK-10
[54] = system: U-251
[55] = system: UACC-257
[56] = system: UACC-62

CCN(CC)Cc1ccccc1CC(=O)N1c2ccccc2C(=O)Nc2cccnc21
GI50 [1]: 62.2 µM (inactive) | GI50 [2]: > 100 µM (inactive) | GI50 [3]: > 100 µM (inactive) | GI50 [4]: > 100 µM (inactive) | GI50 [5]: > 100 µM (inactive) | GI50 [6]: 33.7 µM (inactive) | GI50 [7]: 86.1 µM (inactive) | GI50 [8]: > 100 µM (inactive) | GI50 [9]: > 100 µM (inactive) | GI50 [10]: > 100 µM (inactive) | GI50 [11]: 38.8 µM (inactive) | GI50 [12]: > 100 µM | GI50 [13]: 46 µM (inactive) | GI50 [14]: 64 µM (inactive) | GI50 [15]: > 100 µM (inactive) | GI50 [16]: > 100 µM (inactive) | GI50 [17]: > 100 µM (inactive) | GI50 [18]: > 100 µM (inactive) | GI50 [19]: 79.6 µM (inactive) | GI50 [20]: > 100 µM (inactive) | GI50 [21]: > 100 µM (inactive) | GI50 [22]: > 100 µM (inactive) | GI50 [23]: 41.2 µM (inactive) | GI50 [24]: > 100 µM (inactive) | GI50 [25]: > 100 µM (inactive) | GI50 [26]: > 100 µM (inactive) | GI50 [27]: 46.7 µM (inactive) | GI50 [28]: > 100 µM (inactive) | GI50 [29]: > 100 µM (inactive) | GI50 [30]: > 100 µM (inactive) | GI50 [31]: > 100 µM (inactive) | GI50 [32]: > 100 µM (inactive) | GI50 [33]: 59.6 µM (inactive) | GI50 [34]: > 100 µM (inactive) | GI50 [35]: > 100 µM (inactive) | GI50 [36]: > 100 µM (inactive) | GI50 [37]: > 100 µM (inactive) | GI50 [38]: > 100 µM (inactive) | GI50 [39]: > 100 µM (inactive) | GI50 [40]: > 100 µM (inactive) | GI50 [41]: > 100 µM (inactive) | GI50 [42]: > 100 µM (inactive) | GI50 [43]: > 100 µM (inactive) | GI50 [44]: > 100 µM (inactive) | GI50 [45]: > 100 µM (inactive) | GI50 [46]: > 100 µM (inactive) | GI50 [47]: > 100 µM (inactive) | GI50 [48]: > 100 µM (inactive) | GI50 [49]: > 100 µM (inactive) | GI50 [50]: 34.3 µM (inactive) | GI50 [51]: > 100 µM (inactive) | GI50 [52]: > 100 µM (inactive) | GI50 [53]: > 100 µM (inactive) | GI50 [54]: > 100 µM (inactive) | GI50 [55]: > 100 µM (inactive) | GI50 [56]: > 100 µM (inactive)

Source: ChEMBL document CHEMBL1201862, “PubChem BioAssay data set” (2004)
